{"source": "paper PMC10410440", "about": "“Preclinical PK investigation of a novel IDO1/TDO dual inhibitor—SHR9146 in mouse plasma and tissues by LC-MS/MS” (Frontiers in Oncology, 2023)", "experiment": "Tissue distribution of SHR9146 in mice after oral gavage of 40 mg/kg", "type": "in vivo, ICR mice", "conditions": "male, 40 mg/kg oral gavage; for concentration at 1 h / concentration at 3 h / concentration at 6 h: ICR, mouse, po", "procedure": "ICR mice with body weight 16–26 g were supplied by Shanghai Lingchang Biotechnology Co., Ltd. (animal breeding license number SCXK (Shanghai) 2013-0018) and housed at Shanghai Institute of Materia Medica, Chinese Academy of Sciences [animal use license number SYXK (Shanghai) 2015-0027]. The mice used in this study were fasted overnight for 12 h but had free access to water. Food was supplied 4 h post-dose. All experiments in this study were conducted in accordance with the Guidelines for the Care and Use of Laboratory Animals of Shanghai Institute of Materia Medica, Chinese Academy of Sciences.\nAnother set of 30 mice were randomly assigned into five groups with equal numbers, males and females, for tissue distribution study with oral gavage at a single dose of 40 mg/kg at predetermined different time points: pre-dose and post dose at 1, 3, 6, and 24 h, respectively. The whole brain, heart, liver, spleen, lung, kidney, bladder, pancreas, testis, ovary, uterus, stomach, small intestine, adrenal gland, skin, skeletal muscle, thyroid gland, and abdominal fat tissues as well as the whole blood and plasma samples were harvested. Tissue samples were washed with 0.9% sodium chloride solution to remove the residual blood or contents, blotted on a filter paper, and stored at −70°C prior to the analysis.\nProtein precipitation was selected for the pretreatment of both the plasma and the tissue homogenate prepared after thawing at room temperature, cut into pieces, and homogenized with a quintuple methanol–water mixture (1:1, v/v) for each tissue sample.\nBriefly as follows, an aliquot of 25-μL plasma or tissue homogenate was spiked with 100 μL of internal standard solution (1 μg/mL for plasma, 0.2 μg/mL for tissue homogenate) and 300 μL of methanol added and vortex mixed for 60 s. The mixture was then centrifuged at 14,000 rpm at 4°C for 5.0 min, and the supernatant was diluted with methanol–water (4:1, v/v) in a ratio of 1:9 for the plasma or 1:1 for the tissue homogenate, and 5 μL of the resulting solution was injected for the LC-MS/MS analysis.\nAfter oral administration of 40 mg/kg SHR9146, samples in different tissues at predetermined time points (pre-drug administration, post-drug administration at 1, 3, 6, and 24 h) were collected and prepared for the analysis. The drug concentrations of SHR9146 (μg/g or μg/mL) were determined for each mouse, and the mean and standard deviation were further obtained (Table S7).", "key": {"[1]": {"conditions": "24 h, individual mice, 40 mg/kg"}}, "note": "Several values for one entry are separate records, joined by “and”; a condition that tells them apart may be missing. Equal entries are not always repeated. Where two headings read alike, the source gives them in different places."}
{"smiles": "OCCn1cc(-c2ccc(N3CCC([C@H]4c5c(F)cccc5-c5cncn54)CC3)cc2)cn1", "note": "[SHR9146]", "values": [{"measurement": "SHR9146 concentration in Pancreas", "setting": "1 h, individual mice, 40 mg/kg", "result": "15.265 µg/g and 8.681 µg/g"}, {"measurement": "SHR9146 concentration in Plasma", "setting": "1 h, individual mice, 40 mg/kg", "result": "11.481 µg/mL and 5.761 µg/mL"}, {"measurement": "SHR9146 concentration in Small intestine", "setting": "1 h, individual mice, 40 mg/kg", "result": "24.690 µg/g and 24.120 µg/g"}, {"measurement": "SHR9146 concentration in Bladder", "setting": "3 h, individual mice, 40 mg/kg", "result": "0.390 µg/g and 6.162 µg/g and 6.598 µg/g"}, {"measurement": "SHR9146 concentration in Brain", "setting": "3 h, individual mice, 40 mg/kg", "result": "BLQ"}, {"measurement": "SHR9146 concentration in Kidney", "setting": "3 h, individual mice, 40 mg/kg", "result": "0.314 µg/g and 6.873 µg/g and 7.165 µg/g"}, {"measurement": "SHR9146 concentration in Liver", "setting": "3 h, individual mice, 40 mg/kg", "result": "1.367 µg/g and 13.792 µg/g and 13.853 µg/g"}, {"measurement": "SHR9146 concentration in Lung", "setting": "3 h, individual mice, 40 mg/kg", "result": "0.798 µg/g and 7.286 µg/g and 7.382 µg/g"}, {"measurement": "SHR9146 concentration in Pancreas", "setting": "3 h, individual mice, 40 mg/kg", "result": "0.231 µg/g and 7.160 µg/g and 7.228 µg/g"}, {"measurement": "SHR9146 concentration in Small intestine", "setting": "3 h, individual mice, 40 mg/kg", "result": "0.411 µg/g and 11.992 µg/g and 8.326 µg/g"}, {"measurement": "SHR9146 concentration in Brain", "setting": "6 h, individual mice", "result": "BLQ"}, {"measurement": "SHR9146 concentration in Abdominal fat", "setting": "6 h, individual mice, 40 mg/kg", "result": "BLQ"}, {"measurement": "SHR9146 concentration in Adrenal gland", "setting": "6 h, individual mice, 40 mg/kg", "result": "BLQ and 0.313 μg/g"}, {"measurement": "SHR9146 concentration in Bladder", "setting": "6 h, individual mice, 40 mg/kg", "result": "BLQ and 0.199 μg/g"}, {"measurement": "SHR9146 concentration in Heart", "setting": "6 h, individual mice, 40 mg/kg", "result": "BLQ"}, {"measurement": "SHR9146 concentration in Kidney", "setting": "6 h, individual mice, 40 mg/kg", "result": "0.159 µg/g and 0.129 µg/g and 0.344 µg/g"}, {"measurement": "SHR9146 concentration in Liver", "setting": "6 h, individual mice, 40 mg/kg", "result": "0.702 µg/g and 0.351 µg/g and 0.845 µg/g"}, {"measurement": "SHR9146 concentration in Lung", "setting": "6 h, individual mice, 40 mg/kg", "result": "0.510 µg/g and 0.701 µg/g"}, {"measurement": "SHR9146 concentration in Pancreas", "setting": "6 h, individual mice, 40 mg/kg", "result": "BLQ and 0.127 μg/g"}, {"measurement": "SHR9146 concentration in Plasma", "setting": "6 h, individual mice, 40 mg/kg", "result": "BLQ"}, {"measurement": "SHR9146 concentration in Skeletal muscle", "setting": "6 h, individual mice, 40 mg/kg", "result": "BLQ"}, {"measurement": "SHR9146 concentration in Small intestine", "setting": "6 h, individual mice, 40 mg/kg", "result": "BLQ and 0.152 μg/g"}, {"measurement": "SHR9146 concentration in Spleen", "setting": "6 h, individual mice, 40 mg/kg", "result": "BLQ"}, {"measurement": "SHR9146 concentration in Whole blood", "setting": "6 h, individual mice, 40 mg/kg", "result": "BLQ"}, {"measurement": "SHR9146 concentration in thyroid gland", "setting": "6 h, individual mice, 40 mg/kg", "result": "BLQ"}, {"measurement": "SHR9146 concentration in Abdominal fat", "setting": "24 h, individual mice", "result": "BLQ"}, {"measurement": "SHR9146 concentration in Adrenal gland", "setting": "24 h, individual mice", "result": "BLQ"}, {"measurement": "SHR9146 concentration in Bladder", "setting": "24 h, individual mice", "result": "BLQ"}, {"measurement": "SHR9146 concentration in Brain", "setting": "24 h, individual mice", "result": "BLQ"}, {"measurement": "SHR9146 concentration in Heart", "setting": "24 h, individual mice", "result": "BLQ"}, {"measurement": "SHR9146 concentration in Pancreas", "setting": "24 h, individual mice", "result": "BLQ"}, {"measurement": "SHR9146 concentration in Plasma", "setting": "24 h, individual mice", "result": "BLQ"}, {"measurement": "SHR9146 concentration in Skeletal muscle", "setting": "24 h, individual mice", "result": "BLQ"}, {"measurement": "SHR9146 concentration in Small intestine", "setting": "24 h, individual mice", "result": "BLQ"}, {"measurement": "SHR9146 concentration in Spleen", "setting": "24 h, individual mice", "result": "BLQ"}, {"measurement": "SHR9146 concentration in Testis", "setting": "24 h, individual mice", "result": "BLQ"}, {"measurement": "SHR9146 concentration in Whole blood", "setting": "24 h, individual mice", "result": "BLQ"}, {"measurement": "SHR9146 concentration in thyroid gland", "setting": "24 h, individual mice", "result": "BLQ"}, {"measurement": "SHR9146 concentration in Kidney", "setting": "[1]", "result": "BLQ"}, {"measurement": "SHR9146 concentration in Liver", "setting": "[1]", "result": "BLQ"}, {"measurement": "SHR9146 concentration in Lung", "setting": "[1]", "result": "0.064 µg/g and 0.105 µg/g"}, {"measurement": "SHR9146 concentration in Skin", "setting": "[1]", "result": "BLQ"}, {"measurement": "concentration at 1 h", "setting": "abdominal fat, 40 mg/kg, 1 h, Mean (n=3), read-out: SHR9146 concentration in Abdominal fat", "result": 7200, "unit": "ng/g"}, {"measurement": "concentration at 3 h", "setting": "abdominal fat, 40 mg/kg, 3 h, Mean (n=3), read-out: SHR9146 concentration in Abdominal fat", "result": 4070, "unit": "ng/g"}, {"measurement": "concentration at 6 h", "setting": "abdominal fat, 40 mg/kg, 6 h, Mean (n=3), read-out: SHR9146 concentration in Abdominal fat", "result": 75, "unit": "ng/g"}, {"measurement": "concentration at 1 h", "setting": "adrenal gland, 40 mg/kg, 1 h, Mean (n=3), read-out: SHR9146 concentration in Adrenal gland", "result": 23600, "unit": "ng/g"}, {"measurement": "concentration at 1 h", "setting": "adrenal gland, 40 mg/kg, 1 h, individual mice, read-out: SHR9146 concentration in Adrenal gland", "result": 24100, "unit": "ng/g"}, {"measurement": "concentration at 3 h", "setting": "adrenal gland, 40 mg/kg, 3 h, Mean (n=3), read-out: SHR9146 concentration in Adrenal gland", "result": 8450, "unit": "ng/g"}, {"measurement": "concentration at 6 h", "setting": "adrenal gland, 40 mg/kg, 6 h, Mean (n=3), read-out: SHR9146 concentration in Adrenal gland", "result": 163, "unit": "ng/g"}, {"measurement": "concentration at 6 h", "setting": "adrenal gland, 40 mg/kg, 6 h, individual mice, read-out: SHR9146 concentration in Adrenal gland", "result": 177, "unit": "ng/g"}, {"measurement": "concentration at 1 h", "setting": "bladder, 40 mg/kg, 1 h, Mean (n=3), read-out: SHR9146 concentration in Bladder", "result": 12400, "unit": "ng/g"}, {"measurement": "concentration at 1 h", "setting": "bladder, 40 mg/kg, 1 h, individual mice, read-out: SHR9146 concentration in Bladder", "result": 12500, "unit": "ng/g"}, {"measurement": "concentration at 3 h", "setting": "bladder, 40 mg/kg, 3 h, Mean (n=3), read-out: SHR9146 concentration in Bladder", "result": 4380, "unit": "ng/g"}, {"measurement": "concentration at 6 h", "setting": "bladder, 40 mg/kg, 6 h, Mean (n=3), read-out: SHR9146 concentration in Bladder", "result": 163, "unit": "ng/g"}, {"measurement": "concentration at 6 h", "setting": "bladder, 40 mg/kg, 6 h, individual mice, read-out: SHR9146 concentration in Bladder", "result": 291, "unit": "ng/g"}, {"measurement": "concentration at 1 h", "setting": "brain, 40 mg/kg, 1 h, Mean (n=3), read-out: SHR9146 concentration in Brain", "result": 1890, "unit": "ng/g"}, {"measurement": "concentration at 1 h", "setting": "brain, 40 mg/kg, 1 h, individual mice, read-out: SHR9146 concentration in Brain", "result": 2280, "unit": "ng/g"}, {"measurement": "concentration at 3 h", "setting": "brain, 40 mg/kg, 3 h, Mean (n=3), read-out: SHR9146 concentration in Brain", "result": 666, "unit": "ng/g"}, {"measurement": "concentration at 3 h", "setting": "brain, 40 mg/kg, 3 h, individual mice, read-out: SHR9146 concentration in Brain", "result": 1020, "unit": "ng/g"}, {"measurement": "concentration at 1 h", "setting": "heart, 40 mg/kg, 1 h, Mean (n=3), read-out: SHR9146 concentration in Heart", "result": 7320, "unit": "ng/g"}, {"measurement": "concentration at 1 h", "setting": "heart, 40 mg/kg, 1 h, individual mice, read-out: SHR9146 concentration in Heart", "result": 8420, "unit": "ng/g"}, {"measurement": "concentration at 3 h", "setting": "heart, 40 mg/kg, 3 h, Mean (n=3), read-out: SHR9146 concentration in Heart", "result": 2660, "unit": "ng/g"}, {"measurement": "concentration at 6 h", "setting": "heart, 40 mg/kg, 6 h, Mean (n=3), read-out: SHR9146 concentration in Heart", "result": 48, "unit": "ng/g"}, {"measurement": "concentration at 6 h", "setting": "heart, 40 mg/kg, 6 h, individual mice, read-out: SHR9146 concentration in Heart", "result": 61, "unit": "ng/g"}, {"measurement": "concentration at 1 h", "setting": "kidney, 40 mg/kg, 1 h, Mean (n=3), read-out: SHR9146 concentration in Kidney", "result": 11900, "unit": "ng/g"}, {"measurement": "concentration at 1 h", "setting": "kidney, 40 mg/kg, 1 h, individual mice, read-out: SHR9146 concentration in Kidney", "result": 12300, "unit": "ng/g"}, {"measurement": "concentration at 3 h", "setting": "kidney, 40 mg/kg, 3 h, Mean (n=3), read-out: SHR9146 concentration in Kidney", "result": 4780, "unit": "ng/g"}]}
